According to patent US7556939B2, “Identification and characterization of racemases, definition of protein signatures, and a test for detecting D-amino acid and for screening molecules capable of inhibiting the activity of racemase, especially proline racemase” (Institut Pasteur, priority 2003, dated 2009):

Columns and labels:
TcPRAC enzyme isoforms = settings: span over the enzyme isoforms
Procedure: Optical rotation was measured every 5 sec during 10 min and every 5 min to 1 hour. […] Calculations were done using the Kaleïdagraph program. […] Graphic representation and linear curve regression allowed the determination of Ki as [PAC]/[(slope with PAC/slope without PAC)−1]. All reagents were purchased from Sigma.

D-AAO = molecular target: T1, D-AAO (Sus scrofa, UniProt P00371); experiment: D-AAO/HRP reaction on D-proline in presence of PAC or L-proline; type: biochemical, swine; settings: equimolar mixture of D- and L-Proline versus D-Proline alone
T1 construct: purchased Sigma A-5222; host or cells: swine kidney
T1 sequence (P00371 whole entry): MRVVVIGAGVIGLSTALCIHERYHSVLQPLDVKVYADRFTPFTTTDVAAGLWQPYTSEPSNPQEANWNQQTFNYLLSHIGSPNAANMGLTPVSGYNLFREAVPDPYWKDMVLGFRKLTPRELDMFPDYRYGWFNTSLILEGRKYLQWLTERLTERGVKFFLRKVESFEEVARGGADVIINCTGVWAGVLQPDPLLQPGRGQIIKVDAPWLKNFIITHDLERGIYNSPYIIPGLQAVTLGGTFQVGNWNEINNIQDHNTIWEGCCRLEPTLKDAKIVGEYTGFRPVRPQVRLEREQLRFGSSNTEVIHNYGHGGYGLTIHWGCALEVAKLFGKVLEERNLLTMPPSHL

CsPR = molecular target: T2, CsPR (Acetoanaerobium sticklandii, UniProt E3PTZ4); settings: reported for the proline racemase of C. sticklandii; cited from earlier work
T2 sequence (E3PTZ4 1-335): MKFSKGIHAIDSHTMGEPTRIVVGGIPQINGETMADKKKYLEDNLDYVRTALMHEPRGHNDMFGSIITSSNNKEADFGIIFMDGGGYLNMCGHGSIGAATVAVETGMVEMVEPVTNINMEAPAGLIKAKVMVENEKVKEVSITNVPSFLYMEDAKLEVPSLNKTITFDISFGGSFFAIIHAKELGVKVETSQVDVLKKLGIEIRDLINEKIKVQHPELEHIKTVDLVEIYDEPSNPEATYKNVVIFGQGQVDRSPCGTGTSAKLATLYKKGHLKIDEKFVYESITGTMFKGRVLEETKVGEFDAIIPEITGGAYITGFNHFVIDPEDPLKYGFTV

O=C(O)[C@@H]1CCCN1 [L-proline]
Km (TcPRAC enzyme isoforms): 29 to 75 mM
effect on D-amino-oxidase activity (D-AAO): Inhibits
Km (CsPR): 2.3 mM
